According to the supplement of paper PMC10307832:

Key:
Test in all cases: relative viability (nuclei count vs DMSO), 5 days (fraction); higher = more cells survive
Omipalisib + Pemetrexed = compound: COc1ncc(-c2ccc3nccc(-c4ccnnc4)c3c2)cc1NS(=O)(=O)c1ccc(F)cc1F [Omipalisib] + Nc1nc2[nH]cc(CCc3ccc(C(=O)N[C@@H](CCC(=O)O)C(=O)O)cc3)c2c(=O)[nH]1 [Pemetrexed] (partner 0.2 µM)
How it was run: (§1)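 Nuclei were stained with Hoechst during a one-step fixation (final 0.05% Triton X-100, 1% formaldehyde, 1 ug/ml Hoechst) carried out 5 days after dosing, then counted on 4× images. The cells, lung cancer lines in 1536-well plates, had been dosed by pin tool the day after seeding with one drug alone or a fixed anchor-drug dose plus five library-drug doses (not always all listed) in √10 steps. Relative viability is the nuclei count in treated wells divided by that in vehicle wells, and each value is the median of duplicate plates.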

Omipalisib + Pictilisib = compound: COc1ncc(-c2ccc3nccc(-c4ccnnc4)c3c2)cc1NS(=O)(=O)c1ccc(F)cc1F [Omipalisib] + CS(=O)(=O)N1CCN(Cc2cc3nc(-c4cccc5[nH]ncc45)nc(N4CCOCC4)c3s2)CC1 [Pictilisib] (partner 1 µM)
How it was run: as §1

Omipalisib + Linsitinib = compound: COc1ncc(-c2ccc3nccc(-c4ccnnc4)c3c2)cc1NS(=O)(=O)c1ccc(F)cc1F [Omipalisib] + C[C@]1(O)C[C@@H](c2nc(-c3ccc4ccc(-c5ccccc5)nc4c3)c3c(N)nccn32)C1 [Linsitinib] (partner 1 µM)
How it was run: as §1

Omipalisib + Foretinib = compound: COc1ncc(-c2ccc3nccc(-c4ccnnc4)c3c2)cc1NS(=O)(=O)c1ccc(F)cc1F [Omipalisib] + COc1cc2c(Oc3ccc(NC(=O)C4(C(=O)Nc5ccc(F)cc5)CC4)cc3F)ccnc2cc1OCCCN1CCOCC1 [Foretinib] (partner 0.25 µM)
How it was run: as §1

Omipalisib + Palbociclib = compound: COc1ncc(-c2ccc3nccc(-c4ccnnc4)c3c2)cc1NS(=O)(=O)c1ccc(F)cc1F [Omipalisib] + CC(=O)c1c(C)c2cnc(Nc3ccc(N4CCNCC4)cn3)nc2n(C2CCCC2)c1=O [Palbociclib] (partner 0.5 µM)
How it was run: as §1

Omipalisib + Navitoclax = compound: COc1ncc(-c2ccc3nccc(-c4ccnnc4)c3c2)cc1NS(=O)(=O)c1ccc(F)cc1F [Omipalisib] + CC1(C)CCC(c2ccc(Cl)cc2)=C(CN2CCN(c3ccc(C(=O)NS(=O)(=O)c4ccc(N[C@H](CCN5CCOCC5)CSc5ccccc5)c(S(=O)(=O)C(F)(F)F)c4)cc3)CC2)C1 [Navitoclax] (partner 0.5 µM)
How it was run: as §1

Row | Cell Line | relative viability (Omipalisib + Pemetrexed; first compound 0.0003 µM) | relative viability (Omipalisib + Pemetrexed; first compound 0.003 µM) | relative viability (Omipalisib + Pemetrexed; first compound 0.03 µM) | relative viability (Omipalisib + Pictilisib; first compound 0.0003 µM) | relative viability (Omipalisib + Pictilisib; first compound 0.003 µM) | relative viability (Omipalisib + Pictilisib; first compound 0.03 µM) | relative viability (Omipalisib + Linsitinib; first compound 0.0003 µM) | relative viability (Omipalisib + Linsitinib; first compound 0.003 µM) | relative viability (Omipalisib + Linsitinib; first compound 0.03 µM) | relative viability (Omipalisib + Foretinib; first compound 0.0003 µM) | relative viability (Omipalisib + Foretinib; first compound 0.003 µM) | relative viability (Omipalisib + Foretinib; first compound 0.03 µM) | relative viability (Omipalisib + Palbociclib; first compound 0.0003 µM) | relative viability (Omipalisib + Palbociclib; first compound 0.003 µM) | relative viability (Omipalisib + Palbociclib; first compound 0.03 µM) | relative viability (Omipalisib + Navitoclax; first compound 0.0003 µM) | relative viability (Omipalisib + Navitoclax; first compound 0.003 µM) | relative viability (Omipalisib + Navitoclax; first compound 0.03 µM)
1 | NCI-H23 | 0.692 | 0.44 | 0.374 | 0.45 | 0.373 | 0.401 | 0.596 | 0.397 | 0.346 | 0.851 | 0.681 | 0.461 | 0.391 | 0.239 | 0.211 | 0.748 | 0.421 | 0.35
2 | NCI-H322M | 0.584 | 0.585 | 0.452 | 0.467 | 0.577 | 0.313 | 0.971 | 0.72 | 0.506 | 0.888 | 0.684 | 0.566 | 0.427 | 0.446 | 0.449 | 1.21 | 0.823 | 0.515
3 | NCI-H441 | 0.294 | 0.283 | 0.237 | 0.428 | 0.354 | 0.351 | 0.569 | 0.382 | 0.394 | 0.761 | 0.657 | 0.434 | 0.213 | 0.19 | 0.139 | 0.547 | 0.527 | 0.552
4 | NCI-H460 | 0.0592 | 0.0512 | 0.0757 | 0.419 | 0.254 | 0.316 | 0.509 | 0.232 | 0.0381 | 1.04 | 1.01 | 0.347 | 0.147 | 0.0934 | 0.0384 | 1.06 | 0.61 | 0.143
5 | NCI-H520 | 0.58 | 0.433 | 0.184 | 0.243 | 0.212 | 0.251 | 0.9 | 0.672 | 0.275 | 0.742 | 0.441 | 0.226 | 0.203 | 0.152 | 0.145 | 0.972 | 0.714 | 0.292
6 | NCI-H647 | 0.189 | 0.158 | 0.183 | 0.462 | 0.307 | 0.386 | 1.11 | 0.95 | 0.373 | 1.16 | 0.965 | 0.603 | 0.263 | 0.21 | 0.179 | 0.873 | 0.86 | 0.542
7 | NCI-H838 | 0.25 | 0.229 | 0.214 | 0.422 | 0.393 | 0.313 | 0.902 | 0.74 | 0.346 | 0.953 | 0.703 | 0.375 | 0.221 | 0.184 | 0.146 | 1.1 | 0.997 | 0.501
8 | NCI-H1355 | 1.01 | 0.868 | 0.52 | 0.499 | 0.295 | 0.297 | 0.737 | 0.584 | 0.358 | 0.764 | 0.643 | 0.416 | 0.358 | 0.239 | 0.198 | 0.931 | 0.538 | 0.343
9 | NCI-H1395 | 0.737 | 0.657 | 0.602 | 0.92 | 0.516 | 0.585 | 1.03 | 0.905 | 0.592 | 0.916 | 0.886 | 0.586 | 0.623 | 0.563 | 0.464 | 1.35 | 0.991 | 0.665
10 | NCI-H1437 | 0.276 | 0.298 | 0.27 | 0.436 | 0.308 | 0.319 | 0.952 | 0.824 | 0.404 | 1.26 | 1.35 | 0.918 | 0.363 | 0.307 | 0.218 | 1.03 | 0.974 | 0.517
11 | NCI-H1651 | 0.55 | 0.506 | 0.433 | 0.545 | 0.512 | 0.458 | 0.931 | 0.737 | 0.417 | 0.664 | 0.497 | 0.489 | 0.464 | 0.401 | 0.294 | 0.834 | 0.752 | 0.484
12 | NCI-H1666 | 0.879 | 0.892 | 0.631 | 0.406 | 0.335 | 0.186 | 0.689 | 0.719 | 0.41 | 0.92 | 0.819 | 0.629 | 0.641 | 0.632 | 0.658 | 0.808 | 0.597 | 0.398
13 | NCI-H1734 | 0.419 | 0.431 | 0.402 | 0.461 | 0.307 | 0.389 | 0.731 | 0.484 | 0.359 | 0.754 | 0.446 | 0.268 | 0.278 | 0.238 | 0.205 | 0.763 | 0.444 | 0.275
14 | NCI-H1755 | 0.504 | 0.393 | 0.402 | 0.426 | 0.353 | 0.344 | 1 | 0.942 | 0.516 | 0.911 | 0.821 | 0.51 | 0.428 | 0.421 | 0.362 | 1.01 | 0.848 | 0.368
15 | NCI-H1793 | 0.696 | 0.463 | 0.24 | 0.348 | 0.344 | 0.293 | 0.648 | 0.416 | 0.288 | 0.559 | 0.399 | 0.244 | 0.243 | 0.215 | 0.15 | 0.368 | 0.29 | 0.204
16 | NCI-H1915 | 0.545 | 0.534 | 0.509 | 1.03 | 0.866 | 0.862 | 1.08 | 1.12 | 1.01 | 1.05 | 1.08 | 0.983 | 0.509 | 0.483 | 0.446 | 0.813 | 0.768 | 0.789
